Where two headings read alike, the source gives them in different places.

Data on ten compounds can be found in patent US20250163062A1, “WNT PATHWAY INHIBITOR COMPOUNDS” (ADLAI NORTYE BIOPHARMA CO., LTD., priority 2022, published 2025).

Common to all, as to format: cell-based
The subject of test [1] is Colo205-LUC-TCF/LEF reporter gene. The test is described as follows: Colo205-LUC-TCF/LEF M1 reporter cell line luciferase inhibition. As to conditions: 4 hours incubation, firefly luciferase signal. On the procedure:
Colo205 cell line (Cell Bank of Chinese Academy of Sciences, Cat #TCHul02) was purchased from the Cell Bank of Chinese Academy of Sciences. After expansion and subculture, during the exponential growth phase, luciferase reporter plasmid (Promega) driven by TCF/LEF transcription factor was transfected by lipo3000 liposome transfection. The plasmid carries a resistance gene for resistance screening. Transfection was carried out in 10 cm culture dishes using conventional complete medium without resistance. After 2 days, the medium with resistance was replaced, and the culture was continued. After that, the medium with resistance was replaced every 2 days, and the suspended cells were discarded. The original medium was centrifuged to remove cells and debris and retained as an adaptive medium. When the cells covered the culture dish, the cells were digested, counted, and passaged in a 96-well plate, so that the average number of cells contained in each well was 1.5/well, and the adaptive medium was used for passage. The rest of the cells were frozen. After passage, culture for 4 hours to allow the cells to adhere to the wall, and then observe the number of cells in each well under a microscope. Wells with only 1 cell per well were labeled as monoclonal wells. Afterwards, normal culture was performed, and the culture medium was replaced every 2 days, and observed. There are wells where the monoclonal cells continue to grow in the early stage, and they are labeled twice, and can be replaced with normal medium with resistance. When a monoclonal well was overgrown with a 96-well plate, it is digested and passaged to a 24-well culture plate. After the 24-well plate is overgrown, it is passaged to a 96-well plate and a 6-well plate. The cells in a 96-well plate are at least 6 wells, of which 3 wells were added with known Wnt inhibitors, and the other 3 wells were not treated. After 24 hours, the cells in the 96-well plate were added with a fluorescence detection reagent to detect the fluorescence intensity. Cell lines with fluorescent expression when not treated and decreased fluorescent light after inhibition were selected and further cultured. The Colo205-LUC-TCF/LEF-M1 cell line is one of the cell lines screened above. Its growth curve, cell shape, and cell growth state are similar to those of the original Colo205 cells, and the ratio of the fluorescent signals of the inhibitor-treated and untreated cells is the largest among all cell lines, and the ratio can reach 4-5 times when inhibited at 4 hours, which was completely suitable for the screening of Wnt inhibitors in the later stage.
The Colo205-LUC-TCF/LEF M1 cell line is a reporter tool cell stably transfected with the pGL4.49-LUC2-TCF/LEF vector. The β-catenin Wnt pathway is continuously activated. After adding the inhibitor, the Wnt pathway is inhibited. The expression of firefly luciferase regulated by the TCF/LEF cis-element decreased, and after adding the detection substrate, the detected light signal decreased accordingly, so as to detect the inhibitory effect of the compound.
To a 96-well cell culture plate, add 100 uL of the compound with a maximum concentration of 20 uM to each well, and make a 3-fold serial dilution of the compound concentration. Then 10,000 colo205 cells stably transfected with the reporter gene and 100 uL medium were inoculated into each well, and corresponding positive and negative control wells were made at the same time. Put the cells in a 5% CO2 incubator and incubate at 37° C. for 4 hours. After 4 hours, remove the culture medium, add 100 μL of reagent (Promega) containing the corresponding firefly luciferase substrate to each well, and measure the activity of luciferase reporter gene. Luminescence intensity was read with SpectraMax in full wavelength mode. […]

The test system of the next test is H929. The test is described as follows: Proliferation inhibition test, Wnt mutant cell line H929. The conditions noted are these: Homo sapiens, NCI-H929, 96 h, H929, 96 h culture with compound; read-out: Antiproliferation IC50 H929. The source says: (§1) The cell lines used in the experiment are Colo205, H929, HepG2, and DU4475, which have sustained activation of the Wnt pathway and whose proliferation is Wnt pathway-dependent. On the other hand, RKO cell line, in which normally the Wnt pathway is not activated and whose proliferation is not Wnt pathway-dependent, was used as a control cell line. This was done to determine whether the inhibitory effect of the compound of the present disclosure on Wnt-dependent proliferation is due to other nonspecific toxicity.
(§2) Colo205, H929, DU4475, HepG2 and RKO cell lines cultured in their respective culture media were treated in the logarithmic growth phase, and the cells were collected and prepared into a uniform cell suspension of known concentration, and then added to a 96-well cell culture plate so that each well contained 1000-4000 cells. Place in a 5% CO2 cell culture incubator and culture at 37° C. for 20-24 h. On the second day, add the completely dissolved, 3-fold gradient dilution compound to each cell culture well to make the final maximum concentration in the cell culture well 10 uM, and continue to culture for 96 h. This test uses Promega's cell activity detection test for detection. The more the cells proliferate, the stronger the final signal intensity. The detection instrument is SpectraMax, full wavelength mode. The wells with only DMSO added were used as positive control wells, and the wells without cells inoculated were used as negative control wells.

Another test has as its system DU4475. The test can be described thus: Proliferation inhibition test, Wnt mutant cell line DU4475. As to conditions: Homo sapiens, DU-4475, 96 h, DU4475, 96 h culture with compound; read-out: Antiproliferation IC50 DU4475.
From the text: as §1, §2

In the next test the test system is HepG2. The test can be described thus: Proliferation inhibition test, Wnt mutant cell line HepG2. The conditions noted are these: HepG2, 96 h culture with compound, read-out: Antiproliferation IC50 HepG2.
From the text: as §1, §2

For another test, the system named is RKO. The test is described as follows: Proliferation inhibition test, non-Wnt mutant control cell line RKO. The conditions noted are these: Homo sapiens; RKO (Wnt pathway not activated, control), 96 h culture, maximum concentration 10 uM; read-out: Antiproliferation IC50 RKO.
From the text: as §1, §2

A further test relates to Colo205. The test is described as follows: Proliferation inhibition test, Wnt mutant cell line Colo205. The conditions noted are these: Colo205, 96 h culture with compound, read-out: Antiproliferation IC50 Colo205.
From the text: as §1, §2

For `[2H]C([2H])([2H])N1c2nc(NCc3ccc(Oc4ccc(C(F)(F)F)nc4Cl)nc3)nc3c2N(CCC3)C(=O)[C@@H]1CO` [Compound 1, (S)-2-(((6-((2-chloro-6-(trifluoromethyl)pyridin-3-yl)oxy)pyridin-3-yl)methyl)amino)-5-(hydroxymethyl)-4-(methyl-d3)-4,5,9,10-tetrahydro-6H,8H-pyrido[3,2,1-de]pteridin-6-one], the IC50 in test [1] (4 h) was 15.5 nM; with H929 it was 40.3 nM; in the test on DU4475, 3.17 nM; with HepG2 (Homo sapiens, HepG2, 96 h) it was 1.45 nM; with RKO, > 10000 nM; in the test with Colo205 (Homo sapiens, COLO 205, 96 h) it was 7.81 nM.

As for `CN1c2nc(NCc3ccc(Oc4ccc(C(F)(F)F)nc4Cl)nc3)nc3c2N(CCC3)C(=O)[C@@H]1CO` [Compound 2, (S)-2-(((6-((2-chloro-6-(trifluoromethyl)pyridin-3-yl)oxy)pyridin-3-yl)methyl)amino)-5-(hydroxymethyl)-4-methyl-4,5,9,10-tetrahydro-6H,8H-pyrido[3,2,1-de]pteridin-6-one], the IC50 in test [1] (4 h) is 22.5 nM; in the test with H929, 47.7 nM; with DU4475, 5.05 nM; with HepG2 (Homo sapiens, HepG2, 96 h), 1.68 nM; in the test with RKO it was > 10000 nM; with Colo205 (Homo sapiens, COLO 205, 96 h), 8.67 nM.

`[2H]C([2H])([2H])N1c2nc(NCc3ccc(Oc4ccc(C(F)(F)F)nc4Cl)nc3)nc3c2N(CCC3)C(=O)[C@]1(C)CO` [Compound 3, (S)-2-(((6-((2-chloro-6-(trifluoromethyl)pyridin-3-yl)oxy)pyridin-3-yl)methyl)amino)-5-(hydroxymethyl)-5-methyl-4-(methyl-d3)-4,5,9,10-tetrahydro-6H,8H-pyrido[3,2,1-de]pteridin-6-one]: the IC50 is 15.6 nM in test [1] (4 h); 20 nM in the test with H929; 3.06 nM in the test on DU4475; 2.17 nM with HepG2 (Homo sapiens, HepG2, 96 h); > 10000 nM with RKO; 4.48 nM with Colo205 (Homo sapiens, COLO 205, 96 h).

With `[2H]C([2H])([2H])N1c2nc(NCc3ccc(Oc4cnc(C(F)(F)F)nc4C)nc3)nc3c2N(CCC3)C(=O)[C@@H]1CO` [Compound 4, (S)-5-(Hydroxymethyl)-4-(methyl-d3)-2-(((6-((4-methyl-2-(trifluoromethyl)pyrimidin-5-yl)oxy)pyridin-3-yl)methyl)amino)-4,5,9,10-tetrahydro-6H,8H-pyrido[3,2,1-de]pteridin-6-one], the IC50 in test [1] (4 h) was 66.3 nM; in the test with H929, 278 nM; in the test with DU4475, 25.8 nM; with HepG2 (Homo sapiens, HepG2, 96 h), 89.7 nM; in the test with RKO, > 10000 nM; with Colo205 (Homo sapiens, COLO 205, 96 h), 42.6 nM.

In the case of `[2H]C([2H])([2H])N1c2nc(NCc3ccc(Oc4cnc(C(F)(F)F)nc4C)nc3)nc3c2N(CCC3)C(=O)[C@]1(C)CO` [Compound 5, (S)-5-(Hydroxymethyl)-5-methyl-4-(methyl-d3)-2-(((6-((4-methyl-2-(trifluoromethyl)pyrimidin-5-yl)oxy)pyridin-3-yl)methyl)amino)-4,5,9,10-tetrahydro-6H,8H-pyrido[3,2,1-de]pteridin-6-one], the IC50 was 50.9 nM in test [1] (4 h); 160 nM in the test on H929; 14.4 nM in the test with DU4475; 33.5 nM in the test on HepG2 (Homo sapiens, HepG2, 96 h); > 10000 nM with RKO; 20.6 nM in the test with Colo205 (Homo sapiens, COLO 205, 96 h).

As to `Cc1nc(C(F)(F)F)ncc1Oc1ccc(CNc2nc3c4c(n2)N(C)[C@@](C)([C@H](C)O)C(=O)N4CCC3)cn1` [Compound 6, (S)-5-((S)-1-hydroxyethyl)-4,5-dimethyl-2-(((6-((4-methyl-2-(trifluoromethyl)pyrimidin-5-yl)oxy)pyridin-3-yl)methyl)amino)-4,5,9,10-tetrahydro-6H,8H-pyrido[3,2,1-de]pteridin-6-one], the IC50 in test [1] is 65.6 nM; in the test on H929, 303 nM; with DU4475, 47.4 nM; in the test on HepG2, 109 nM; in the test on RKO it was > 10000 nM; with Colo205, 9.05 nM.

Consider `[2H]C([2H])([2H])N1c2nc(NCc3ccc(Oc4cnc(C(F)(F)F)nc4CC)nc3)nc3c2N(CCC3)C(=O)[C@]1(C)CO` [Compound 7, (S)-2-(((6-((4-ethyl-2-(trifluoromethyl)pyrimidin-5-yl)oxy)pyridin-3-yl)methyl)amino)-5-(hydroxymethyl)-5-methyl-4-(methyl-d3)-4,5,9,10-tetrahydro-6H,8H-pyrido[3,2,1-de]pteridin-6-one], for which the IC50 is 10.7 nM in test [1] (4 h); 52.2 nM with H929; 3.59 nM with DU4475; 15.6 nM in the test with HepG2 (Homo sapiens, HepG2, 96 h); > 10000 nM in the test with RKO; 5.54 nM in the test on Colo205 (Homo sapiens, COLO 205, 96 h).

For the compound `[2H]C([2H])([2H])N1c2nc(NCc3ccc(Oc4cnc(C(F)(F)F)nc4CC)nc3)nc3c2N(CCC3)C(=O)[C@@H]1CO` [Compound 8, (S)-2-(((6-((4-ethyl-2-(trifluoromethyl)pyrimidin-5-yl)oxy)pyridin-3-yl)methyl)amino)-5-(hydroxymethyl)-4-(methyl-d3)-4,5,9,10-tetrahydro-6H,8H-pyrido[3,2,1-de]pteridin-6-one], the IC50 in test [1] (4 h) was 32 nM; with H929 it was 86.9 nM; in the test on DU4475 it was 9.6 nM; with HepG2 (Homo sapiens, HepG2, 96 h), 35.1 nM; in the test with RKO, > 10000 nM; in the test on Colo205 (Homo sapiens, COLO 205, 96 h), 24.2 nM.

For `CCc1nc(C(F)(F)F)ncc1Oc1ccc(CNc2nc3c4c(n2)N(C)[C@@](C)([C@H](C)O)C(=O)N4CCC3)cn1` [Compound 14, (S)-2-(((6-((4-ethyl-2-(trifluoromethyl)pyrimidin-5-yl)oxy)pyridin-3-yl)methyl)amino)-5-((S)-1-hydroxyethyl)-4,5-dimethyl-4,5,9,10-tetrahydro-6H,8H-pyrido[3,2,1-de]pteridin-6-one], the IC50 in test [1] (4 h) is 35.2 nM; in the test with HepG2 (Homo sapiens, HepG2, 96 h) it was 79 nM; in the test on RKO it was > 10000 nM; in the test on Colo205 (Homo sapiens, COLO 205, 96 h) it was 70.3 nM.

`CN(C)c1nc(C(F)(F)F)ccc1Oc1ccc(CNc2nc3c4c(n2)N(C)[C@@](C)(CO)C(=O)N4CCC3)cn1` [Compound 15, (S)-2-(((6-((2-(dimethylamino)-6-(trifluoromethyl)pyridin-3-yl)oxy)pyridin-3-yl)methyl)amino)-5-(hydroxymethyl)-4,5-dimethyl-4,5,9,10-tetrahydro-6H,8H-pyrido[3,2,1-de]pteridin-6-one]: the IC50 was < 0.1 nM in test [1] (4 h); 1.3 nM with HepG2 (Homo sapiens, HepG2, 96 h); > 10000 nM in the test with RKO; 1.35 nM in the test with Colo205 (Homo sapiens, COLO 205, 96 h).
